Publication PMC5515969, “Effects of 31 FDA approved small-molecule kinase inhibitors on isolated rat liver mitochondria” (Archives of Toxicology, 2016)
Read-outs that look alike come from different tables or passages of the source.

Experiments:
[1] = tested on: isolated rat liver mitochondria; assay: Mitochondrial oxygen consumption (glutamate/malate or succinate driven, state 4 and state 3); assay type: biochemical; on State 3 respiration driven by succinate at 10XCmax: key: 0 indicates that the drug had no effects (negative); on State 3 respiration driven by succinate at 1XCmax: key: 0 indicates that the drug had no effects (negative)
Summary of the method: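 Rat liver mitochondria (1 mg/ml protein) exposed 5 min to kinase inhibitors in 0.1% DMSO, then O2 consumption measured by Clark-type electrode with glutamate/malate or succinate (state 4), ADP added after 3 min (state 3). Rates normalized to 0.1% DMSO controls set to 1.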

[2] = tested on: RCC I; assay: RCC I activity in submitochondrial particles; assay type: biochemical, rat; set-up: key to RCC I at 10XCmax / RCC I at 100XCmax / RCC I at 50XCmax / RCC I at 30XCmax / RCC I at 20XCmax: activity relative to DMSO-treated controls (control set as 1 = 100%)
Summary of the method: (§1)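 Inhibitors preincubated 15 min with submitochondrial particles (1 mg/ml) before activity readout. RCC I (rotenone-sensitive fraction) and I/V: A340, and RCC II: A600, each every 1 min for 6 min; RCC III/IV: A550 every 10 s for 2 min. Activities relative to DMSO control set as 1.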

[3] = tested on: RCC III; assay: RCC III activity in submitochondrial particles; assay type: biochemical, rat; set-up: key to RCC III at 100XCmax: activity relative to DMSO-treated controls (control set as 1 = 100%)
Experimental: (§2) KIs were incubated with submitochondrial particles (1 mg/ml) for 15 min and then RCC I–V activities measured. […] The activities of DMSO-treated samples (controls) were set as 1. […] The difference between the activity from rotenone-containing buffer and rotenone-absent buffer was considered as RCC I activity. […] For measuring RCC I/V and II activity, the changes in absorbance at 340 and 600 nm, respectively, were determined every 1 min for 6 min. For measuring RCC III and RCC IV, the changes in absorbance at 550 nm were measured every 10 s for 2 min.

[4] = tested on: RCC IV; assay: RCC IV activity in submitochondrial particles; assay type: biochemical, rat; set-up: key to RCC IV at 50XCmax / RCC IV at 100XCmax: activity relative to DMSO-treated controls (control set as 1 = 100%)
Experimental: as §2

[5] = tested on: RCC I–V; assay: Activities of RCC I–V, overall statements; assay type: biochemical, rat; settings: submitochondrial particles
Experimental: as §2

[6] = cited from earlier work
[7] = molecular target: T1, RCC II (Rattus norvegicus, UniProt P21913+Q641Z9+Q6PCT8+Q920L2); assay: RCC II activity in submitochondrial particles; assay type: biochemical; set-up: key: activity relative to DMSO-treated controls (control set as 1 = 100%); settings: DMSO treated samples set as 1
T1 construct: Submitochondrial particles were prepared by subjecting the intact mitochondria to three successive freeze–thaw cycles; from tissue; host or cells: rat liver mitochondria, used as submitochondrial particles
Summary of the method: as §1

[8] = tested on: RCC V; assay: RCC V activity in submitochondrial particles; assay type: biochemical, rat; settings: DMSO treated samples set as 1; on RCC V at 5XCmax: key: 0 indicates that the drug had no effects (negative)
Summary of the method: as §1

[9] = tested on: isolated rat liver mitochondria; assay: Mitochondrial inner membrane potential (MMP), Rhodamine 123; assay type: biochemical; settings: difference in signal between KI and DMSO treated samples at the end of experiments
Text: Fig. 3 KI effects on mitochondrial inner membrane potential (MMP). […] In a, c, data are means and standard derivations from three separate experiments. *p < 0.05 as compared to DMSO-treated samples at the end of experiments. In b, data are means of two independent experiments

[10] = tested on: isolated rat liver mitochondria; assay: Mitochondrial swelling (absorbance at 535 nm); assay type: biochemical; settings: difference in signal between KI and DMSO treated samples at the end of experiments; on Swelling 5XCmax: key: 0 indicates that the drug had no effects (negative)
[11] = tested on: isolated rat liver mitochondria; assay: Mitochondrial toxicity, any endpoint, intact mitochondria and submitochondrial particles; assay type: biochemical; settings: highest concentrations tested
Experimental: Rats were anesthetized by an intraperitoneal injection of Nembutal and the liver perfused with PBS to remove the blood. The liver was then cut into small pieces and homogenized using a Dounce type homogenizer in the ice-cold isolation buffer (IB) containing 200 mM sucrose, 10 mM Tris-MOPS, 1 mM EGTA (pH 7.4). The sample was then centrifuged at 600g for 10 min. The supernatant was further centrifuged at 7500g for 10 min, and the pellets was washed once with the IB and centrifuged again at 7500g for 10 min to collect mitochondria. […] Before drug treatment, the protein concentration was adjusted to 1 mg/ml using appropriate buffer. […] Briefly, mitochondrial and cytosolic fractions from four different preparations using four rats were diluted using the Laemmli protein loading buffer and subject to SDS-PAGE with 4–20% gradient gels. The proteins were blotted to PVDF membranes and detected using antibodies against GAPDH, ATP5A, UQCRC2, SDHB, and NDUFB8.
The aliquoted stock solutions were kept for less than one month and each tube was used only once. The KIs were added to the mitochondria at 1:1000 dilutions. […] The Cmax data were from clinical trials which used FDA recommend dosages, route of administration, and duration. […] The final concentration of DMSO for drug treatment was always 0.1%, and control treatments were 0.1% DMSO.

[12] = tested on: isolated rat liver mitochondria; settings: positive control alamethicin treated samples
[13] = in vivo; cited from earlier work
[14] = ref product labeling, cited from earlier work
[15] = tested on: isolated rat liver mitochondria; assay: Mitochondrial ROS production (CM-H2DCFDA); settings: DMSO treated samples set as 1
[16] = 1-fold Cmax, 15 min, DMSO-treated = 100
[17] = 1XCmax, DMSO treated samples set as 1
[18] = 2.5XCmax, DMSO treated samples set as 1
[19] = 5XCmax, DMSO treated samples set as 1
[20] = 10XCmax, DMSO treated samples set as 1
[21] = 20XCmax, DMSO treated samples set as 1
[22] = 30XCmax, DMSO treated samples set as 1
[23] = 50XCmax, DMSO treated samples set as 1
[24] = 100XCmax, DMSO treated samples set as 1

T1 sequence (Q920L2 35-656): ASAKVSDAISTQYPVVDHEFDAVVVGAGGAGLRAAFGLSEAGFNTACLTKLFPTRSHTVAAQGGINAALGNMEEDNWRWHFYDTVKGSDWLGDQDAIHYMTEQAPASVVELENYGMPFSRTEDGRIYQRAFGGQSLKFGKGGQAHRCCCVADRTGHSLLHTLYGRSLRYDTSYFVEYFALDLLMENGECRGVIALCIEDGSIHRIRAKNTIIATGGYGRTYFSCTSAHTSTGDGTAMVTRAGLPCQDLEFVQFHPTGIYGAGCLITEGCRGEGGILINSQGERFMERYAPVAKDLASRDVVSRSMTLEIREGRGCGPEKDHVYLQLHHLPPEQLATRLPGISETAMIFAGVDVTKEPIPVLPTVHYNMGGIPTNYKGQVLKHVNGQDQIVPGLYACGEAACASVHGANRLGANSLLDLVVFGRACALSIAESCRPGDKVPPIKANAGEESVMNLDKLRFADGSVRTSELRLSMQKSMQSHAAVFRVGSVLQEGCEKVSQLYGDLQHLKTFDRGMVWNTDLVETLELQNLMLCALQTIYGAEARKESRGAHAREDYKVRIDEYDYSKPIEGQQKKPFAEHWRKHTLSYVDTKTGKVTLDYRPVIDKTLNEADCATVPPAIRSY
T1 sequence (P21913 31-282): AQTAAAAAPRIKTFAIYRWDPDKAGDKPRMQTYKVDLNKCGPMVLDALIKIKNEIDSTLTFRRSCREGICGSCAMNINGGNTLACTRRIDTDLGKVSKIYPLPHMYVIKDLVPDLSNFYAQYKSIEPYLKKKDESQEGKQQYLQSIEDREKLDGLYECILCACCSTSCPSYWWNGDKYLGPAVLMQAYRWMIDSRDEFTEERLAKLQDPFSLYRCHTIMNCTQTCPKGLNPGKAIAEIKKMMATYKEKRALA
T1 sequence (Q641Z9 1-169): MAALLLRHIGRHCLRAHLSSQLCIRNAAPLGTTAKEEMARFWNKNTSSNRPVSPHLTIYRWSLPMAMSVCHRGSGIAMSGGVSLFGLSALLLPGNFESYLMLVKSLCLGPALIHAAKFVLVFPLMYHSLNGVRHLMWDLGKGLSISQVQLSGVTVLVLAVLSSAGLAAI
T1 sequence (Q6PCT8 57-159): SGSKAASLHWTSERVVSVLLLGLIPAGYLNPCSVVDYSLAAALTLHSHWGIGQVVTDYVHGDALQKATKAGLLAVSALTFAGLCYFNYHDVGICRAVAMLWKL

Cc1ccc(Nc2nccc(N(C)c3ccc4c(C)n(C)nc4c3)n2)cc1S(N)(=O)=O [Pazopanib]
inhibition of state 3 mitochondrial respiration driven by glutamate/malate ([1]; onefold Cmax): over 50% | RCC activity I [2, 16]: 83.77 ± 2.98 % of control | RCC activity III [3, 16]: 96.90 ± 11.69 % of control | RCC activity IV [4, 16]: 102.68 ± 0.57 % of control | lowest concentration inhibiting RCCs [5]: equal to Cmax | RCCs inhibited ([5]; up to 100-fold Cmax or highest testable concentration): inhibitor of RCC I but not other RCCs | Cmax ([6]; human therapeutic Cmax at FDA recommended dosages, ref product labeling and drug approval packages at the official FDA website): 133 µM | Cmax ([6]; human therapeutic Cmax at FDA recommended dosages, ref product labeling and drug approval packages at the official FDA website, listed as pazopanib): 133 µM

Cc1ccc(C(=O)Nc2ccc(CN3CCN(C)CC3)c(C(F)(F)F)c2)cc1C#Cc1cnc2cccnn12 [Ponatinib]
State 3 respiration driven by succinate at 1XCmax [1, 17]: 0 | State 4 respiration driven by succinate at 1XCmax [1, 17]: 0 | State 3 respiration driven by succinate at 2.5XCmax [1, 18]: 0 | State 4 respiration driven by succinate at 2.5XCmax [1, 18]: 0 | State 3 respiration driven by succinate at 5XCmax [1, 19]: 0 | State 4 respiration driven by succinate at 5XCmax [1, 19]: 0 | State 3 respiration driven by succinate at 10XCmax [1, 20]: 0 | State 4 respiration driven by succinate at 10XCmax [1, 20]: 0 | State 3 respiration driven by succinate at 20XCmax [1, 21]: 0 | State 4 respiration driven by succinate at 20XCmax [1, 21]: 0 | State 3 respiration driven by succinate at 30XCmax [1, 22]: 0 | State 4 respiration driven by succinate at 30XCmax [1, 22]: 0 | State 3 respiration driven by succinate at 50XCmax [1, 23]: 0 | State 4 respiration driven by succinate at 50XCmax [1, 23]: 0 | State 3 respiration driven by succinate at 100XCmax [1, 24]: 0 | State 4 respiration driven by succinate at 100XCmax [1, 24]: 0 | RCC I at 10XCmax [2, 20]: 0 | RCC II at 1.0XCmax ([7]; 1.0XCmax): 0 | RCC II at 2.5XCmax ([7]; 2.5XCmax): 0 | RCC II at 5XCmax ([7]; 5XCmax): 0 | RCC II at 10XCmax ([7]; 10XCmax): 0 | RCC II at 20XCmax ([7]; 20XCmax): 0 | RCC II at 30XCmax ([7]; 30XCmax): 0 | RCC II at 50XCmax ([7]; 50XCmax): 0 | RCC II at 100XCmax ([7]; 100XCmax): 0 | RCC III at 100XCmax ([3]; 100XCmax): 0 | RCC IV at 50XCmax ([4]; 50XCmax, DMSO treated samples set as 1, in %): 0 | RCC V at 5XCmax ([8]; 5XCmax): 0 | RCC V at 50XCmax ([8]; 50XCmax): 0 | MMP measured by Rhodamine 123 at 1XCmax ([9]; 1XCmax): 0 | MMP measured by Rhodamine 123 at 2.5XCmax ([9]; 2.5XCmax): 0 | MMP measured by Rhodamine 123 at 5XCmax ([9]; 5XCmax): 0 | MMP measured by Rhodamine 123 at 10XCmax ([9]; 10XCmax): 0 | MMP measured by Rhodamine 123 at 20XCmax ([9]; 20XCmax): 0 | MMP measured by Rhodamine 123 at 30XCmax ([9]; 30XCmax): 0 | MMP measured by Rhodamine 123 at 50XCmax ([9]; 50XCmax): 0 | MMP measured by Rhodamine 123 at 100XCmax ([9]; 100XCmax): 0 | Swelling 1XCmax ([10]; 1XCmax): 0 | Swelling 2.5XCmax ([10]; 2.5XCmax): 0 | Swelling 5XCmax ([10]; 5XCmax): 0 | Swelling 10XCmax ([10]; 10XCmax): 0 | Swelling 20XCmax ([10]; 20XCmax): 0 | Swelling 30XCmax ([10]; 30XCmax): 0 | Swelling 50XCmax ([10]; 50XCmax): 0 | Swelling 100XCmax ([10]; 100XCmax): 0 | effects on intact mitochondria or submitochondrial particles [11]: no effects | Cytochrome c release 1XCmax ([12]; 1XCmax): 0 | Cytochrome c release 2.5XCmax ([12]; 2.5XCmax): 0 | Cytochrome c release 5XCmax ([12]; 5XCmax): 0 | Cytochrome c release 10XCmax ([12]; 10XCmax): 0 | Cytochrome c release 20XCmax ([12]; 20XCmax): 0 | Cytochrome c release 30XCmax ([12]; 30XCmax): 0 | Cytochrome c release 50XCmax ([12]; 50XCmax): 0 | Cytochrome c release 100XCmax ([12]; 100XCmax): 0 | Cmax (ng or µg/ml) ([6]; human therapeutic maximal blood concentration, ref product labeling): 0.073 µg/mL | Cmax ([6]; read-out: Cmax at µM, human therapeutic maximal blood concentration, ref product labeling): 0.14 µM | DILI potential (based on labeling) [13]: 1 | Labeling for DILI [13]: BBW: fatal DILI | labeling for DILI [13]: BBW: fatal DILI | Labeling for cardiotoxicity ([14]; BBW: black box warning, W&P: Warnings and Precautions): BBW: Heart Failure | Potential for cardiotoxicity (based on labeling) [14]: 1 | ROS measured by CM-H2DCFDA at 1XCmax ([15]; 1XCmax): 0 | ROS measured by CM-H2DCFDA at 2.5XCmax ([15]; 2.5XCmax): 0 | ROS measured by CM-H2DCFDA at 5XCmax ([15]; 5XCmax): 0 | ROS measured by CM-H2DCFDA at 10XCmax ([15]; 10XCmax): 0 | ROS measured by CM-H2DCFDA at 20XCmax ([15]; 20XCmax): 0 | ROS measured by CM-H2DCFDA at 30XCmax ([15]; 30XCmax): 0 | ROS measured by CM-H2DCFDA at 50XCmax ([15]; 50XCmax): 0 | ROS measured by CM-H2DCFDA at 100XCmax ([15]; 100XCmax): 0
